Converted amounts (≈) assume the structure as drawn. The source made the active and inactive calls. The calls are words filed in the database; no cut-off is given here.
What was measured:
[1] = Hepatotoxicity against mouse Hepa-1c1c7 cells after 48 hrs by celltiter blue assay; type: toxicity, cell-based
[2] = Inhibition of TNF-alpha-induced NF-kappaB expressed in human A549 cells treated 1 hr after TNFalpha challenge measured after 6 hrs by luciferase reporter gene assay; type: cell-based
[3] = system: CCRF-CEM; experiment: Toxicity against human CCRF-CEM cells after 48 hrs by celltiter blue assay; type: cell-based
[4] = system: A549; experiment: Inhibition of NF-kappaB expressed in human A549 cells assessed as suppression of TNF-alpha-induced COX2 level at 25 uM after 7 hrs by Western blotting; type: cell-based
[5] = system: HL-60; experiment: Toxicity against human HL60 cells after 48 hrs by celltiter blue assay; type: cell-based; details: hl-60, 48 h
[6] = system: A549; experiment: […] against human A549 cells after 48 hrs by celltiter blue assay; type: toxicity, cell-based; details: a549, 48 h
[7] = system: A549; experiment: Inhibition of NF-kappaB expressed in human A549 cells assessed as suppression of TNF-alpha-induced p65 level at 25 uM after 7 hrs by Western blotting; type: cell-based
[8] = system: A549; experiment: Inhibition of NF-kappaB expressed in human A549 cells assessed as suppression of TNF-alpha-induced IKKalpha level at 25 uM after 7 hrs by Western blotting; type: cell-based
[9] = system: A549; experiment: Inhibition of NF-kappaB expressed in human A549 cells assessed as prevention of TNF-alpha-induced IkappaBalpha degradation level at 25 uM after 7 hrs by Western blotting; type: cell-based

Row | Compound | IC50 at 48 h [1] | IC50 [2] | other results
1 | COC1=CC(=O)O[C@@H](CCc2ccc3c(c2)OCO3)C1 [DIHYDROMETHYSTICIN] | 313 µg/mL (≈ 1130 µM) | 20 µg/mL (≈ 72.4 µM) | –
2 | COc1cc(/C=C/c2ccccc2)oc(=O)c1 [DESMETHOXYYANGONIN] | 173 µg/mL (≈ 758 µM) | 33 µg/mL (≈ 145 µM) | –
3 | COc1cc(O)c(C(=O)/C=C/c2ccc(O)cc2)c(OC)c1 [FLAVOKAWAIN C] | 9.8 µg/mL (≈ 32.6 µM) | 8.1 µg/mL (≈ 27 µM) | –
4 | COC1=CC(=O)O[C@@H](CCc2ccccc2)C1 [DIHYDROKAWAIN] | 175 µg/mL (≈ 753 µM) | 60 µg/mL (≈ 258 µM) | –
5 | COC1=CC(=O)O[C@@H](/C=C/c2ccc3c(c2)OCO3)C1 [METHYSTICIN] | 392 µg/mL (≈ 1430 µM) | 0.19 µg/mL (≈ 0.693 µM) | Activity [3]: Non-toxic; inhibition [4]: Active; Activity [5]: Non-toxic; Activity [6]: Non-toxic; inhibition [7]: Active; inhibition [8]: Active; inhibition [9]: Active
6 | COc1ccc(/C=C/C(=O)c2c(O)cc(OC)cc2OC)cc1 [FLAVOKAWAIN A] | 13.8 µg/mL (≈ 43.9 µM) | 11.6 µg/mL (≈ 36.9 µM) | –
7 | COC1=CC(=O)O[C@@H](/C=C/c2ccccc2)C1 [KAVAIN] | 166 µg/mL (≈ 721 µM) | 32 µg/mL (≈ 139 µM) | –
8 | COc1cc(O)c(C(=O)/C=C/c2ccccc2)c(OC)c1 [FLAVOKAWAIN B] | 6.6 µg/mL (≈ 23.2 µM) | 8 µg/mL (≈ 28.1 µM) | –
